According to patent US9314030B2, “Particulate wood preservative and method for producing same” (Koppers Performance Chemicals Inc., priority 2004, dated 2016):
Like-named read-outs stand apart in the source and are kept apart here.

Columns and labels:
[1] = Wet milling of chlorothalonil with 0.5-0.6 mm cerium-doped zirconium oxide beads, particle size; type: physicochemical
Description: The laboratory-sized vertical mill was provided by CB Mills, model# L-3-J. The mill has a 2 liter capacity and is jacketed for cooling. Unless otherwise specified, ambient water was cycled through the mill cooling jacket during operation. The internal dimensions are 3.9″ diameter by 9.1″ height. The mill uses a standard 3×3″ disk agitator (mild steel) on a stainless steel shaft, and it operates at 2,620 rpm.
The media used in this Example was 0.4-0.5 mm zirconium silicate beads supplied by CB Mills. All particle size determinations were made with a Sedigraph™ 5100T manufactured by Micromeritics, which uses x-ray detection and bases calculations of size on Stokes' Law.
The same mill and conditions were used in this experiment as in experiment 1. However, the grinding media was 0.5-0.6 mm cerium-doped zirconium oxide beads obtained from CB Mills. The density of the cerium doped zirconium oxide is ˜6.0 g/cm^3. […] The total batch weight was about 600 g.

[2] = treated wood; cited from earlier work
[3] = 0.5-0.6 mm cerium-doped zirconium oxide, milling time 0 min
[4] = 0.5-0.6 mm cerium-doped zirconium oxide, milling time 90 min
[5] = 0.5-0.6 mm cerium-doped zirconium oxide, milling time 240 min
[6] = 0.5 mm zirconia milling media, in 90 minutes
[7] = 0.5 mm zirconia milling media, in 6 hours
[8] = 0.4-0.5 mm zirconium silicate, milling time 0 min
[9] = 0.4-0.5 mm zirconium silicate, milling time 30 min
[10] = 0.4-0.5 mm zirconium silicate, milling time 60 min
[11] = 0.4-0.5 mm zirconium silicate, milling time 90 min
[12] = 0.4-0.5 mm zirconium silicate, milling time 120 min
[13] = 0.4-0.5 mm zirconium silicate, milling time 150 min
[14] = 0.4-0.5 mm zirconium silicate, milling time 180 min
[15] = 0.4-0.5 mm zirconium silicate, milling time 270 min
[16] = 0.4-0.5 mm zirconium silicate, milling time 450 min

N#Cc1c(Cl)c(Cl)c(Cl)c(C#N)c1Cl [chlorothalonil]
Particle Size Data-Volume % With Diamter Greater Than 1 μm [1, 3]: 92 Volume %
Particle Size Data-Volume % With Diamter Greater Than 2 μm [1, 3]: 77 Volume %
Particle Size Data-Volume % With Diamter Greater Than 5 μm [1, 3]: 30 Volume %
Particle Size Data-Volume % With Diamter Greater Than 10 μm [1, 3]: 8 Volume %
Particle Size Data-Volume % With Diamter Greater Than 0.4 μm [1, 4]: 22 Volume %
Particle Size Data-Volume % With Diamter Greater Than 1 μm [1, 4]: 3 Volume %
Particle Size Data-Volume % With Diamter Greater Than 2 μm [1, 4]: 3 Volume %
Particle Size Data-Volume % With Diamter Greater Than 5 μm [1, 4]: 3 Volume %
Particle Size Data-Volume % With Diamter Greater Than 10 μm [1, 4]: 3 Volume %
d50 [1, 4]: 0.31 μm
Particle Size Data-Volume % With Diamter Greater Than 0.2 μm [1, 5]: 51 Volume %
Particle Size Data-Volume % With Diamter Greater Than 0.4 μm [1, 5]: 3 Volume %
Particle Size Data-Volume % With Diamter Greater Than 1 μm [1, 5]: 3 Volume %
Particle Size Data-Volume % With Diamter Greater Than 2 μm [1, 5]: 2 Volume %
Particle Size Data-Volume % With Diamter Greater Than 5 μm [1, 5]: 1 Volume %
Particle Size Data-Volume % With Diamter Greater Than 10 μm [1, 5]: 0 Volume %
d50 [1, 5]: 0.21 μm
d50 [1, 6]: less than 1 micron
d95 [1, 6]: less than 1 micron
d50 [1, 7]: less than 0.3 microns
d95 [1, 7]: less than 0.4 microns
d90 (0.4-0.5 mm zirconium silicate, at 60 minutes): about 2 microns
Particle Size Data-Volume % With Diamter Greater Than 2 μm [8]: 95 Volume %
Particle Size Data-Volume % With Diamter Greater Than 5 μm [8]: 48 Volume %
Particle Size Data-Volume % With Diamter Greater Than 10 μm [8]: 10 Volume %
d50 [8]: 4.9 μm
Particle Size Data-Volume % With Diamter Greater Than 1 μm [9]: 68 Volume %
Particle Size Data-Volume % With Diamter Greater Than 2 μm [9]: 21 Volume %
Particle Size Data-Volume % With Diamter Greater Than 5 μm [9]: 4 Volume %
Particle Size Data-Volume % With Diamter Greater Than 10 μm [9]: 0 Volume %
d50 [9]: 1.3 μm
Particle Size Data-Volume % With Diamter Greater Than 1 μm [10]: 50 Volume %
Particle Size Data-Volume % With Diamter Greater Than 2 μm [10]: 11 Volume %
Particle Size Data-Volume % With Diamter Greater Than 5 μm [10]: 2 Volume %
Particle Size Data-Volume % With Diamter Greater Than 10 μm [10]: 4 Volume %
d50 [10]: 1.0 μm
Particle Size Data-Volume % With Diamter Greater Than 1 μm [11]: 94 Volume %
Particle Size Data-Volume % With Diamter Greater Than 2 μm [11]: 22 Volume %
Particle Size Data-Volume % With Diamter Greater Than 5 μm [11]: 23 Volume %
Particle Size Data-Volume % With Diamter Greater Than 10 μm [11]: 18 Volume %
d50 [11]: 1.4 μm
Particle Size Data-Volume % With Diamter Greater Than 2 μm [12]: 4 Volume %
Particle Size Data-Volume % With Diamter Greater Than 5 μm [12]: 0 Volume %
Particle Size Data-Volume % With Diamter Greater Than 10 μm [12]: 2 Volume %
Particle Size Data-Volume % With Diamter Greater Than 1 μm [13]: 58 Volume %
Particle Size Data-Volume % With Diamter Greater Than 2 μm [13]: 6 Volume %
Particle Size Data-Volume % With Diamter Greater Than 5 μm [13]: 2 Volume %
Particle Size Data-Volume % With Diamter Greater Than 10 μm [13]: 0 Volume %
Particle Size Data-Volume % With Diamter Greater Than 1 μm [14]: 53 Volume %
Particle Size Data-Volume % With Diamter Greater Than 2 μm [14]: 7 Volume %
Particle Size Data-Volume % With Diamter Greater Than 5 μm [14]: 2 Volume %
Particle Size Data-Volume % With Diamter Greater Than 10 μm [14]: 2 Volume %
Particle Size Data-Volume % With Diamter Greater Than 1 μm [15]: 54 Volume %
Particle Size Data-Volume % With Diamter Greater Than 2 μm [15]: 8 Volume %
Particle Size Data-Volume % With Diamter Greater Than 5 μm [15]: 0 Volume %
Particle Size Data-Volume % With Diamter Greater Than 10 μm [15]: 2 Volume %
Particle Size Data-Volume % With Diamter Greater Than 1 μm [16]: 56 Volume %
Particle Size Data-Volume % With Diamter Greater Than 2 μm [16]: 21 Volume %
Particle Size Data-Volume % With Diamter Greater Than 5 μm [16]: 8 Volume %
Particle Size Data-Volume % With Diamter Greater Than 10 μm [16]: 12 Volume %
d50 (0.4-0.5 mm zirconium silicate, within about one hour): ~1 micron
starting particle size (before wet milling): 3-4 microns

copper citrate
copper in leachate relative to CCA baseline [2]: over fifteen times the baseline concentration
